The results in this text go back to ChEMBL document CHEMBL3875216, “Synthesis of antimicrobial glucosamides as bacterial quorum sensing mechanism inhibitors” (Bioorg Med Chem, 2017).

Each structure is given as a SMILES string.

Data set [1] has as its system Pseudomonas aeruginosa. Put plainly: Inhibition of LasR-dependent quorum sensing activity in Pseudomonas aeruginosa MH602 harboring GFP-fused […] LasB promoter assessed as inhibition of 3-oxo-dodecanoyl HSL-induced GFP expression at 2 mM measured after 8 hrs by fluorescence assay relative to control.
Data set [2] deals with Pseudomonas aeruginosa. Put plainly: Inhibition of LasR-dependent quorum sensing activity in Pseudomonas aeruginosa MH602 harboring GFP-fused […] LasB promoter assessed as inhibition of 3-oxo-dodecanoyl HSL-induced GFP expression at 2 mM measured after 24 hrs by fluorescence assay relative to control.
The test system of data set [3] is Pseudomonas aeruginosa. Kind of data set: Inhibition of LasR-dependent quorum sensing activity in Pseudomonas aeruginosa MH602 harboring GFP-fused […] LasB promoter assessed as inhibition of 3-oxo-dodecanoyl HSL-induced GFP expression at 1 mM measured after 8 hrs by fluorescence assay relative to control.
Data set [4] deals with Pseudomonas aeruginosa. Put plainly: Inhibition of LasR-dependent quorum sensing activity in Pseudomonas aeruginosa MH602 harboring GFP-fused […] LasB promoter assessed as inhibition of 3-oxo-dodecanoyl HSL-induced GFP expression at 500 uM measured after 8 hrs by fluorescence assay relative to control.
Data set [5] has as its system Escherichia coli. Put plainly: Inhibition of LuxR-dependent quorum sensing activity in Escherichia coli MT102 harboring pJBA132 assessed as inhibition of OHHL-induced GFP expression at 2 mM measured after 8 hrs by fluorescence assay relative to control.
Data set [6] concerns Escherichia coli. Put plainly: Inhibition of LuxR-dependent quorum sensing activity in Escherichia coli MT102 harboring pJBA132 assessed as inhibition of OHHL-induced GFP expression at 1 mM measured after 8 hrs by fluorescence assay relative to control.
The subject of data set [7] is Escherichia coli. Put plainly: Inhibition of LuxR-dependent quorum sensing activity in Escherichia coli MT102 harboring pJBA132 assessed as inhibition of OHHL-induced GFP expression at 1 mM measured after 24 hrs by fluorescence assay relative to control.
Data set [8] deals with Escherichia coli. Kind of data set: Inhibition of LuxR-dependent quorum sensing activity in Escherichia coli MT102 harboring pJBA132 assessed as inhibition of OHHL-induced GFP expression at 500 uM measured after 8 hrs by fluorescence assay relative to control.
In data set [9] the test system is Pseudomonas aeruginosa. Put plainly: Growth inhibition of Pseudomonas aeruginosa MH602 at 2 mM after 8 hrs relative to control. Particulars: MH602, 8 h, read-out: GI.
The subject of data set [10] is Pseudomonas aeruginosa. Kind of data set: Growth inhibition of Pseudomonas aeruginosa MH602 at 2 mM after 24 hrs relative to control. The note with it: MH602, 24 h, read-out: GI.
For data set [11], the system named is Pseudomonas aeruginosa. Kind of data set: Growth inhibition of Pseudomonas aeruginosa MH602 at 1 mM after 8 hrs relative to control. The note with it: MH602, 8 h, read-out: GI.
Data set [12] relates to Pseudomonas aeruginosa. Put plainly: Growth inhibition of Pseudomonas aeruginosa MH602 at 1 mM after 24 hrs relative to control. The note with it: MH602, 24 h, read-out: GI.
Data set [13] has as its system Pseudomonas aeruginosa. Put plainly: Growth inhibition of Pseudomonas aeruginosa MH602 at 500 uM after 8 hrs relative to control. Particulars: MH602, 8 h, read-out: GI.
In data set [14] the test system is Pseudomonas aeruginosa. Kind of data set: Growth inhibition of Pseudomonas aeruginosa MH602 at 500 uM after 24 hrs relative to control. The note with it: MH602, 24 h, read-out: GI.
Data set [15] concerns Escherichia coli. Kind of data set: Growth inhibition of Escherichia coli MT102 at 2 mM after 8 hrs relative to control. The note with it: MT102, 8 h, read-out: GI.
Data set [16] deals with Escherichia coli. Put plainly: Growth inhibition of Escherichia coli MT102 at 2 mM after 24 hrs relative to control. Particulars: MT102, 24 h, read-out: GI.
The test system of data set [17] is Escherichia coli. Kind of data set: Growth inhibition of Escherichia coli MT102 at 1 mM after 8 hrs relative to control. The note with it: MT102, 8 h, read-out: GI.
The subject of data set [18] is Escherichia coli. Put plainly: Growth inhibition of Escherichia coli MT102 at 1 mM after 24 hrs relative to control. Particulars: MT102, 24 h, read-out: GI.
The subject of data set [19] is Escherichia coli. Put plainly: Growth inhibition of Escherichia coli MT102 at 500 uM after 8 hrs relative to control. The note with it: MT102, 8 h, read-out: GI.
In data set [20] the test system is Escherichia coli. Kind of data set: Growth inhibition of Escherichia coli MT102 at 500 uM after 24 hrs relative to control. Particulars: MT102, 24 h, read-out: GI.
For data set [21], the system named is Pseudomonas aeruginosa PA14. Kind of data set: Inhibition of quorum sensing-regulated pyocyanin production in Pseudomonas aeruginosa PA14 at 2 mM after 24 hrs relative to control.
Data set [22] deals with Pseudomonas aeruginosa. Put plainly: Growth inhibition of Pseudomonas aeruginosa PA14 at 2 mM after 24 hrs relative to control. Particulars: 2000 µM.
In data set [23] the test system is Pseudomonas aeruginosa PA14. Put plainly: Inhibition of quorum sensing-regulated biofilm formation in Pseudomonas aeruginosa PA14 at 2 mM after overnight incubation by crystal violet staining based assay relative to control.
Data set [24] has as its system Escherichia coli. Kind of data set: Inhibition of LuxR-dependent quorum sensing activity in Escherichia coli MT102 harboring pJBA132 assessed as inhibition of OHHL-induced GFP expression at 2 mM measured after 24 hrs by fluorescence assay relative to control.

In the case of `O=C(Cc1ccc(F)cc1)N[C@@H]1[C@@H](O)[C@H](O)[C@@H](CO)O[C@H]1O`, the inhibition in data set [1] came out at 31.3%; in data set [2] it was 2.9%; in data set [3], 29%; in data set [4] it was 9.2%; in data set [5], 12.6%; in data set [6], 3.6%. The inhibition in [7] was 2%; in [8], 2.4%; in [21], 6.6%; in data set [23], 5.1%. Besides, the inhibition at 2000 µM in [9] turned out to be 0%; in data set [10] it was 0%; in [15], 0%; in data set [16], 15.8%. For the same compound, the inhibition at 1000 µM in data set [11] turned out to be 0%; in data set [12], 3%; in data set [17] it was 0%; in data set [18], 8.8%. The inhibition at 500 µM in data set [13] came to 0%; in [14] it was 1.4%; in data set [19], 0%; in data set [20] it was 19.4%. In data set [22], the “growth inhibition (GI)” value is “Non-Toxic”.
As for `CCCCCCCC(=O)N[C@@H]1[C@@H](O)[C@H](O)[C@@H](CO)O[C@H]1O`, the inhibition in data set [1] was found to be 23.2%; in data set [2], 21.3%; in data set [3] it was 12.2%; in data set [4], 17.5%; in data set [5] it was 16.7%; in data set [24], 45.7%. For the same compound, the inhibition was found to be 48.2% in [7], 11.7% in data set [21] and 14% in [23]. For the same compound, the inhibition at 2000 µM in [9] stood at 21.3%; in data set [10], 65.4%; in [15], 30.7%; in [16], 0%. For the same compound, the inhibition at 1000 µM in data set [11] was 0%; in [12] it was 0%; in data set [17], 10.6%; in [18], 4.4%. The inhibition at 500 µM was 3.4% in data set [13], 0% in data set [14], 0% in [19] and 0% in data set [20]. Moreover, in data set [22], the “growth inhibition (GI)” value was “Non-Toxic”.
For `CCCCCCCCCCCC(=O)N[C@H]1[C@H](OC(C)=O)O[C@H](COC(C)=O)[C@@H](OC(C)=O)[C@@H]1OC(C)=O`, the inhibition came out at 35.3% in data set [2]; 12.8% in data set [4]; 1.8% in data set [5]; 59.7% in [24]; 31.5% in data set [7]; 19.7% in [21]. Further, the inhibition in data set [23] turned out to be 3.5%. The inhibition at 2000 µM in data set [9] was 1.2%; in data set [10] it was 0%; in data set [15] it was 21.8%; in data set [16] it was 15%. The inhibition at 1000 µM in [11] is 0%; in data set [12], 0%; in [17], 0%; in data set [18] it was 13.4%. The inhibition at 500 µM in [13] turned out to be 0%; in [14], 0%; in [19], 0%; in data set [20], 12.2%. Also, the “growth inhibition (GI)” value in data set [22] is “Non-Toxic”.
